According to patent publication US20020132817A1, “Heterocyclic compounds, their production and use” (priority 1998, published 2002):
Marks after values point to notes of the source that are not given here.

Experiments:
[1] = system: plasma extravasation induced by capsaicin in trachea of guinea pigs; test: Inhibitory effect on plasma extravasation induced by capsaicin in trachea of guinea pigs; assay type: in vivo; settings: for ED50: Cavia porcellus, iv, 5 minutes before capsaicin, Evans' blue dye in trachea, read-out: ID50, μg/kg, i.v.
Experimental: Guinea pigs (Hartley type white male guinea pige), (n=6) were anesthetized with 35 mg/kg of pentobarbital injected intraperitoneally (i.p.), then test compounds were administered intravenously (i.v.). After 5 minutes, a mixed solution of capsaicin ([…]) and Evans' blue dye (20 mg/kg) was administered intravenously to cause reaction. Ten minutes later, test animals were sacrificed by cutting the aorta, then perfused through pulmonary artery with 50 ml of physiological saline. The trachea was excised, and its wet weight was measure. The trachea was incubated at room temperature in 1 ml of acetone-0.3% sodium sulfate (7:3) overnight and Evans' blue dye was extracted from the trachea. The extract solution was centrifuged at 2800 rpm for 5 minutes. The amount of Evans' blue dye in the supernatant was quantified by measuring absorbance at […].
The reaction of accelerating the permeability of blood vessels is expressed in terms of the amount of Evans' blue (μg) per trachea unit weight (g) and the effect of drug was evaluated by calculating the degree of inhibition (% inhibition) according to the following equation: […]

[2] = biological target: T1, substance P receptor (Homo sapiens, UniProt P25103); test: Radioligand receptor binding inhibitory activity using receptor from human lymphoblast cells (IM-9); settings: 125I-BHSP radioligand, receptor from IM-9 cells, 25° C. for 30 minutes
T1 construct: The receptor was prepared from human lymphoblast cells (IM-9); endogenous in cells; host or cells: IM-9 human lymphoblast cells (membrane preparation)
Experimental: Radioligand receptor binding inhibitory activity Binding inhibitory activity using receptor from human lymphoblast cells (IM-9)
The receptor was prepared from human lymphoblast cells (IM-9). IM-9 cells (2×10^5 cells/ml) were inoculated and incubated for 3 days (one liter), which was then subjected to centrifuge for 5 minutes at 500×g to obtain cell pellets. […] The residue was washed twice with 30 ml of the above-mentioned buffer, which was then preserved frozen (−80° C.) as a specimen of the receptor.
The specimen was suspended in a reaction buffer (50 mM Tri-HCl buffer (pH 7.4), 0.02% bovine serum albumin, 1 mM phenylmethylsulfonyl fluoride, […], […] bacitracin, 3 mM manganese chloride) and 100 ul portion was the suspension was used in the reaction. […] The amount of nonspecific binding was determined by adding substance P at a final concentration of 2×10^−6M. After the reaction, using a cell harvester (290 PHD, Cambridge Technology, Inc, U.S.A.), rapid filtration was carried out through a glass filter (GF/B, Whatman, U.S.A.) to stop the reaction. After washing three times with 250 ul of 50 mM of Tris-HCl buffer (pH 7.4) containing 0.02% bovine serum albumin, the radioactivity remaining on the filter was determined with a gamma counter. Before use, the filter was immersed in 0.1% polyethyleneimine for 24 hours and air-dried.

[3] = biological target: T2, human NK2 receptor (Homo sapiens, UniProt P21452); test: Binding inhibitory activity toward human NK2 receptor; settings: (2-[125I]iodohistidyl1)Neurokinin A 0.1 nM, receptor expressed in COS-7 cells, room temperature 60 min
T2 construct: expressed in transfected cells; host or cells: COS-7 cells, transient transfection with an SRa-promoter expression vector; membrane preparation
T2 sequence (P21452 1-398): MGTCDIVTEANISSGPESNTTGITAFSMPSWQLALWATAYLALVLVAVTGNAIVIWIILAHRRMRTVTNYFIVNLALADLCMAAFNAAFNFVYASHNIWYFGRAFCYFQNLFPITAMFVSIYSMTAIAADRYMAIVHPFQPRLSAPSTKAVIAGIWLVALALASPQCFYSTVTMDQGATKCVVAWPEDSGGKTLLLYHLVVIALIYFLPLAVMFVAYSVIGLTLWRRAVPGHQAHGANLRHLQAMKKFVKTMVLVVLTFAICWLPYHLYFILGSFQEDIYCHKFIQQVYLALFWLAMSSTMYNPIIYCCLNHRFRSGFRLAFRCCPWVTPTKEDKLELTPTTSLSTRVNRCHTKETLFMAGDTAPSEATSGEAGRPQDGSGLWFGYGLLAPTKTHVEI

T1 sequence (P25103 whole entry): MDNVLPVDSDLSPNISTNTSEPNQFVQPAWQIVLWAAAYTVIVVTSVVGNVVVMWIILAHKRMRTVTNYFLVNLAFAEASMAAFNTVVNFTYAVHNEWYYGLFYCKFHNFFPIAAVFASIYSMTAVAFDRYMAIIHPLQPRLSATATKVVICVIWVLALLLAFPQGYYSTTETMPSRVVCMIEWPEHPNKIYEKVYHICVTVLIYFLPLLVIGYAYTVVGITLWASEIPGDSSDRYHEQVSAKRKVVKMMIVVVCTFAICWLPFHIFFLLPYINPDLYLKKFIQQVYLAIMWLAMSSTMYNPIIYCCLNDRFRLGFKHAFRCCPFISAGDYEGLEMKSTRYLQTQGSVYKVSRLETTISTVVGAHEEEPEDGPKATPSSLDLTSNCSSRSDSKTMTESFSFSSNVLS

Row | Compound | melting point | IC50 [2] | IC50 [3] | ED50 [1] | Degree of Inhibition (%) ([1]; Dosage (i.v.) 100 μg/kg)
1 | Cc1ccc(-c2c3n(c(=O)c4ncccc24)CCCCCN(Cc2cc(C(F)(F)F)cc(C(F)(F)F)c2)C3=O)cc1 [Reference Example 60, 7-[3,5-Bis(trifluoromethyl)benzyl]-6,7,8,9,10,11,12,14-octahydro-5-(4-methylphenyl)-6,14-dioxo[1,4]diazonino[2,1-g][1,7]naphthyridine] |  |  |  | 11 µg/kg | 
2 | O=C1c2c(-c3ccccc3)c3cccnc3c(=O)n2CCCN1Cc1cc(C(F)(F)F)cc(C(F)(F)F)c1 [Reference Example 61, 7-[3,5-Bis(trifluoromethyl)benzyl]-6,7,8,9,10,12-hexahydro-6,12-dioxo-5-phenyl[1,4]diazepino[2,1-g][1,7]naphthyridine] |  |  |  | 2.6 µg/kg | 
3 | Cc1cnc2c(c1-c1ccccc1)C(=O)N(Cc1cc(C(F)(F)F)cc(C(F)(F)F)c1)C[C@H](C)CO2 [Reference Example 85, (S)-5-[3,5-Bis(trifluoromethyl)benzyl]-2,3,4,5-tetrahydro-3,8-dimethyl-6-oxo-7-phenyl-6H-pyrido[2,3-b][1,5]oxazocine] | 147 to 148 °C | 0.36 nM |  |  | 
4 | Cc1cc(-c2ccccc2)c2c([n+]1[O-])OCCN(Cc1cc(C(F)(F)F)cc(C(F)(F)F)c1)C2=O [Reference Example 89, 4-[3,5-Bis(trifluoromethyl)benzyl]-2,3,4,5-tetrahydro-8-methyl-5-oxo-6-phenylpyrido[3,2-f][1,4]oxazepine 9-oxide] | 181 to 183 °C | 0.44 nM |  |  | 
5 | CC(=O)OCc1cc(-c2ccccc2)c2c(n1)OCCN(Cc1cc(C(F)(F)F)cc(C(F)(F)F)c1)C2=O [Reference Example 91, 8-Acetoxymethyl-4-[3,5-bis(trifluoromethyl)benzyl]-2,3,4,5-tetrahydro-5-oxo-6-phenylpyrido[3,2-f][1,4]oxazepine] | 122 to 124 °C | 0.28 nM |  |  | 
6 | CC(=O)OCc1cc(-c2ccccc2)c2c(n1)OCCCN(Cc1cc(C(F)(F)F)cc(C(F)(F)F)c1)C2=O [Reference Example 92, 9-Acetoxymethyl-5-[3,5-bis(trifluoromethyl)benzyl]-2,3,4,5-tetrahydro-6-oxo-7-phenyl-6H-pyrido[2,3-b][1,5]oxazocine] | 156 to 157 °C | 0.74 nM |  |  | 
7 | O=C1c2c(-c3ccccc3)cc(CCl)nc2OCCN1Cc1cc(C(F)(F)F)cc(C(F)(F)F)c1 [Reference Example 93, 4-[3,5-Bis(trifluoromethyl)benzyl]-8-chloromethyl-2,3,4,5-tetrahydro-5-oxo-6-phenylpyrido[3,2-f][1,4]oxazepine] | 183 to 184 °C | 0.42 nM |  |  | 
8 | COCc1cc(-c2ccccc2)c2c(n1)OCCN(Cc1cc(C(F)(F)F)cc(C(F)(F)F)c1)C2=O [Reference Example 94, 4-[3,5-Bis(trifluoromethyl)benzyl]-2,3,4,5-tetrahydro-8-methoxymethyl-5-oxo-6-phenylpyrido[3,2-f][1,4]oxazepine] | 139 to 140 °C | 0.17 nM |  |  | 
9 | CN(C)Cc1cc(-c2ccccc2)c2c(n1)OCCN(Cc1cc(C(F)(F)F)cc(C(F)(F)F)c1)C2=O [Reference Example 99, 4-[3,5-Bis(trifluoromethyl)benzyl]-8-dimethylaminomethyl-2,3,4,5-tetrahydro-5-oxo-6-phenylpyrido[3,2-f][1,4]oxazepine] | 186 to 188 °C | 0.12 nM |  |  | 

Now from value to molecule, other results behind:

Row | melting point | IC50 [2] | IC50 [3] | Compound | ED50 [1] | Degree of Inhibition (%) ([1]; Dosage (i.v.) 100 μg/kg)
10 | 194 to 195 °C | 0.28 nM |  | Cc1ccc(-c2c3n(c(=O)c4ncccc24)CCCN(Cc2cc(C(F)(F)F)cc(C(F)(F)F)c2)C3=O)cc1 [Reference Example 56, 7-[3,5-Bis(trifluoromethyl)benzyl]-6,7,8,9,10,12-hexahydro-5-(4-methylphenyl)-6,12-dioxo[1,4]diazepino[2,1-g][1,7]naphthyridine] | 7.2 µg/kg | 
11 |  | 0.76 nM |  | Cc1ccc(-c2c3n(c(=O)c4ncccc24)CCCCN(Cc2cc(C(F)(F)F)cc(C(F)(F)F)c2)C3=O)cc1 [Reference Example 57, 7-[3,5-Bis(trifluoromethyl)benzyl]-6,7,8,9,10,11-hexahydro-5-(4-methylphenyl)-6,13-dioxo-13H-[1,4]diazocino[2,1-g][1,7]naphthyridine] | 4.2 µg/kg | 
12 |  | 1.2 nM |  | O=C1c2c(-c3ccccc3)c3cccnc3c(=O)n2CCCCN1Cc1cc(C(F)(F)F)cc(C(F)(F)F)c1 [Reference Example 62, 7-[3,5-Bis(trifluoromethyl)benzyl]-6,7,8,9,10,11-hexahydro-6,13-dioxo-5-phenyl-13H-[1,4]diazocino[2,1-g][1,7]naphthyridine] | 3.2 µg/kg | 
13 | 179 to 180 °C |  |  | Cc1ccc(-c2c3n(c(=O)c4ncccc24)C[C@H](C)CN(Cc2cc(C(F)(F)F)cc(C(F)(F)F)c2)C3=O)cc1 [Reference Example 66, (9R)-7-[3,5-Bis(trifluoromethyl)benzyl]-6,7,8,9,10,12-hexahydro-9-methyl-5-(4-methylphenyl)-6,12-dioxo[1,4]diazepino[2,1-g][1,7]naphthyridine] | 41 µg/kg | 
14 | 150 to 152 °C | 0.17 nM |  | C[C@H]1CN(Cc2cc(C(F)(F)F)cc(C(F)(F)F)c2)C(=O)c2c(-c3ccccc3)c3cccnc3c(=O)n2C1 [Reference Example 67, (9S)-7-[3,5-Bis(trifluoromethyl)benzyl]-6,7,8,9,10,12-hexahydro-9-methyl-6,12-dioxo-5-phenyl[1,4]diazepino[2,1-g][1,7]naphthyridine] | 1.6 µg/kg | 
15 | 179 to 180 °C |  |  | Cc1ccc(-c2c3n(c(=O)c4ncccc24)C[C@@H](C)CN(Cc2cc(C(F)(F)F)cc(C(F)(F)F)c2)C3=O)cc1 [Reference Example 68, (9S)-7-[3,5-Bis(trifluoromethyl)benzyl]-6,7,8,9,10,12-hexahydro-9-methyl-5-(4-methylphenyl)-6,12-dioxo[1,4]diazepino[2,1-g][1,7]naphthyridine] | 3.2 µg/kg | 
16 | 245 to 247 °C | 0.23 nM |  | C[C@@H]1CCn2c(c(-c3ccccc3)c3cccnc3c2=O)C(=O)N(Cc2cc(C(F)(F)F)cc(C(F)(F)F)c2)C1 [Reference Example 71, (9R)-7-[3,5-Bis(trifluoromethyl)benzyl]-6,7,8,9,10,11-hexahydro-9-methyl-6,13-dioxo-5-phenyl-13H-[1,4]diazocino[2,1-g] [1,7]naphthyridine] | 1.9 µg/kg | 
17 |  | 1.1 nM |  | Cc1cnc2c(c1-c1ccccc1)C(=O)N(Cc1cc(C(F)(F)F)cc(C(F)(F)F)c1)CCO2 [Reference Example 77, 4-[3,5-Bis(trifluoromethyl)benzyl]-2,3,4,5-tetrahydro-7-methyl-5-oxo-6-phenylpyrido[3,2-f][1,4]oxazepine] |  | 64.0* %
18 |  |  | 6.2 nM | O=C1c2c(-c3ccccc3)c3cccnc3c(=O)n2CCCCN1Cc1ccccc1 [Reference Example 81, 7-Benzyl-6,7,8,9,10,11-hexahydro-6,13-dioxo-5-phenyl-13H-[1,4]diazocino[2,1-g][1,7]naphthyridine] |  | 
19 | 240 to 241 °C | 0.84 nM |  | C[C@@H]1CCn2c(c(-c3ccc(CO)cc3)c3cccnc3c2=O)C(=O)N(Cc2cc(C(F)(F)F)cc(C(F)(F)F)c2)C1 [Reference Example 137, (9R)-7-[3,5-bis(trifluoromethyl)benzyl]-6,7,8,9,10,11-hexahydro-5-(4-hydroxymethylphenyl)-9-methyl-6,13-dioxo-13H-[1,4]diazosino[2,1-g][1,7]napththylidine] | 2.5 µg/kg | 
